Results reported in patent publication US10975114B2, “Bis 2′-5′-RR-(3′F-A)(3′F-A) cyclic dinucleotide compound and uses thereof” (ADURO BIOTECH, INC., priority 2017, dated 2021).

Legend:
[1] = tested on: THP1 cells (hSTING HAQ allele); experiment: THP1-Dual IRF-3 luciferase reporter assay without digitonin; type: cell-based, human; conditions: 30 min compound incubation, overnight readout of secreted luciferase
Protocol: Cells were washed with fresh media and incubated for 30 min at 37° C. with 5% CO2 with compounds in 3-fold titration steps from 2,000 to 0.0338 μM in PB buffer (50 mM 4-(2-hydroxyethyl)-1-piperazineethanesulfonic acid, 100 mM KCl, 3 mM MgCl2, 0.1 mM dithiothreitol, 85 mM sucrose, 1 mM ATP, 0.1 mM GTP and 0.2% bovine serum albumin). After 30 minutes, cells were washed and fresh RPMI media containing 10% FBS was added, and cells were incubated at 37° C. with 5% CO2. Cell culture supernatants from each sample were collected after overnight incubation, and 10 μl of the cell culture supernatants was added to 50 μl QUANTI-Luc reagent (Invivogen). Type I interferon activation was determined by measuring secreted luciferase levels on a SpectraMax M3 spectrophotometer (Molecular Devices). The EC50 value for the same compounds as tested in Example 4 was determined from the dose-response curve for the 10 concentrations from the serial dilution of the compounds in this assay.

4T1 mammary carcinoma [2] = experiment: AH1-specific T cells in distal 4T1 tumor (TILs), with or without anti-PD-1; type: in vivo, BALB/c mice
Protocol: To assess the ability of 2′2′-RR-(3′F-A)(3′F-A) to promote anti-tumor immunity in murine tumor models in combination with an antagonistic anti-PD-1 antibody, 6-8 week old female BALB/c mice (n=8/group) were implanted in both the left and the right flanks with 4T1 mammary carcinoma cells (2×10^5 cells in 100 aL PBS, day 0). Mice were treated with vehicle alone or 1 μg 2′2′-RR-(3′F-A)(3′F-A) in a total volume of 40 aL HBSS by IT injection using a 27 gauge needle when tumors reached a volume of approximately 40-50 mm^3 on day 8 post tumor implantation (indicated by dotted line on the x-axis in tumor growth graphs). Mice were given intraperitoneal (IP) injections of 200 μg control IgG or anti-PD-1 (clone RMP1-14, BioXCell) beginning on the day of 2′2′-RR-(3′F-A)(3′F-A) treatment and then continuing twice per week throughout the duration of the experiment. […] Tumors were measured twice weekly.
To directly quantify the effect of combining 2′2′-RR-(3′F-A)(3′F-A) with anti-PD-1 on tumor-specific T cells, a cohort of mice from Example 9 were euthanized on day 7 post IT injection and non-injected tumors dissociated into a single cell suspension. […] Data were acquired using a LSRFortessa X-20 cytometer with FACSDiva software (BD) and analyzed with FlowJo software (Tree Star).

4T1 mammary carcinoma [3] = experiment: 4T1 mammary carcinoma dual-flank model, single intratumoral injection; type: in vivo, BALB/c mice
Protocol: (§1) To assess the ability of 2′2′-RR-(3′F-A)(3′F-A) to promote anti-tumor immunity in a murine tumor model, 6-8 week old female BALB/c mice (n=8/group) were implanted in both the left and the right flanks with 4T1 mammary carcinoma cells (2×10^5 cells in 100 μL PBS). Mice were treated with 2′2′-RR-(3′F-A)(3′F-A) at 0.1, 1, 10 and 100 μg in a total volume of 40 μL HBSS and compared to Hank's Balanced Salt Solution (HBSS) vehicle control. Compound was administered when tumors reached a volume of approximately 40-50 mm^3 on day 8 post tumor implantation (indicated by dotted line on the x-axis in tumor growth graphs). The compound was administered by a single […] injection into the center of the tumor (intratumoral, IT) using a 27 gauge needle. Tumors were measured twice weekly.

4T1 mammary carcinoma [4] = experiment: Tumor-specific T cells in blood of 4T1 mice (AH1 tetramer flow cytometry); type: in vivo, BALB/c mice; conditions: day 7 post IT injection, 0.1, 1 and 10 μg IT doses, compared to HBSS
Protocol: as §1
Lympholyte (Cedarlane) gradient-purified PBMCs (˜1×10^6) were pre-incubated with anti-CD16/32 monoclonal antibody to block potential non-specific binding and labeled with murine T-Select H-2L^d MuLV gp70 Tetramer-[…]-PE (SEQ ID NO: 20, AH1 peptide with PE fluorescent label, MBL), anti-CD4-BUV737 (RMA4-5), anti-CD8α-BUV395 (53-6.7) (BD Biosciences); anti-CD90.2 BV510 (30-H12) (BioLegend) and the Fixable LIVE/DEAD Near-IR viability dye (ThermoFisher). Data were acquired using a LSRFortessa X-20 cytometer with FACSDiva software (BD) and analyzed with FlowJo software (Tree Star).

4T1 mammary carcinoma [5] = experiment: 4T1 mammary carcinoma dual-flank model, combination with anti-PD-1 antibody; type: in vivo, BALB/c mice
Protocol: To assess the ability of 2′2′-RR-(3′F-A)(3′F-A) to promote anti-tumor immunity in murine tumor models in combination with an antagonistic anti-PD-1 antibody, 6-8 week old female BALB/c mice (n=8/group) were implanted in both the left and the right flanks with 4T1 mammary carcinoma cells (2×10^5 cells in 100 aL PBS, day 0). Mice were treated with vehicle alone or 1 μg 2′2′-RR-(3′F-A)(3′F-A) in a total volume of 40 aL HBSS by IT injection using a 27 gauge needle when tumors reached a volume of approximately 40-50 mm^3 on day 8 post tumor implantation (indicated by dotted line on the x-axis in tumor growth graphs). Mice were given intraperitoneal (IP) injections of 200 μg control IgG or anti-PD-1 (clone RMP1-14, BioXCell) beginning on the day of 2′2′-RR-(3′F-A)(3′F-A) treatment and then continuing twice per week throughout the duration of the experiment. Some mice were given IP injection of 100 μg anti-CD8 (clone 2.43, BioXCell) on study days 6, 8, 10, 14, and 17 to deplete CD8^+ T cells. Tumors were measured twice weekly.

hSTING WT = molecular target: T1, hSTING WT (Homo sapiens, UniProt Q86WV6, H232R); experiment: ITC binding assay, hSTING WT; conditions: 25° C., protein 0.1 mM, ligand 0.35 mM
T1 construct: made in house; host or cells: BL21 Rosetta 2 (DE3) E. coli
Protocol: (§2) The WT and REF proteins were similarly prepared for use in an ITC binding assay. Expression plasmids were transformed into BL21 Rosetta 2 (DE3) (EMD Millipore) E. coli cells for protein expression. 50 ml starter cultures were grown overnight in 2×YT supplemented with 50 μg/ml kanamycin and 30 μg/ml chloramphenicol. Multi-liter large scale cultures of the same growth media as the starter were inoculated at a ratio of 1:1,000 (V/V) and allowed to grow at 37° C. to an optical density of 0.6, cultures were then shifted to 18° C. Protein expression was induced by the addition of isopropyl β-D-1-thiogalactopyranoside to a final concentration of 0.3 mM. Protein expression was allowed to proceed for 18-24 hrs. Pelleted cells were resuspended in 50 mM Tris pH 7.5, 500 mM NaCl, 10% glycerol, 20 mM imidazole, 1 mM TCEP and complete protease inhibitor cocktail (Sigma). Cells were lysed by sonication (Branson) and insoluble material was removed by centrifugation. Proteins were purified on Ni-NTA resin and concentrated to >10 mg/ml. 6×H-SUMO-STING LBD was further purified by gel filtration chromatography using a High Load 26/600 Superdex 75 column (GE Healthcare) in a buffer of 20 mM Tris pH 7.5, 150 mM NaCl, 5% glycerol and 1 mM TCEP. Peak fractions were concentrated to between 10-15 mg/ml via ultrafiltration aliquoted and flash frozen in liquid nitrogen and stored at […]
The resulting amino acid sequence for the STING WT allele is as follows: • Allele Name: WT • Amino Acid Sequence:
(§3) Proteins were dialyzed overnight in 20 mM HEPES pH 7.5, 150 mM NaCl. Insoluble material was removed by centrifugation at 31,000×g. The invention compound 2′2′-RR-(3′F-A)(3′F-A) and comparison STING agonists 3′3′-RR-(2′F-A)(2′F-A); 2′3′-RR-(3′F-A)(2′F-A) were resuspended in dialysis buffer. The concentration of both the protein and ligands were checked by spectroscopy and adjusted if necessary.
(§4) STING protein was added to the ITC sample cell at a final concentration of 0.1 mM. The CDN ligand was at a final concentration of 0.35 mM in the syringe. […]

REF allele hSTING = molecular target: T2, REF allele hSTING (Homo sapiens, UniProt Q86WV6); experiment: DSF Tm shift, purified hSTING REF allele (AA140-379); type: binding; conditions: 1 mg/ml STING AA140-379, ligand 1 mM
T2 construct: 6xHis-SUMO (with TEV site) (N, cleaved yes); made in house; host or cells: Rosetta2 (DE3) E. coli
Protocol: (§5) Cells were grown in lysogeny broth at 37° C. until a […] absorbance of 0.6 was reached. […] Cells were lysed using an S-450D sonifier (Emmerson industrial) on ice. […] Protein was aliquoted, flash frozen in liquid nitrogen and stored at −80° C. until use.
(§6) The protein is heated in the presence of a dye that binds to and fluoresces in hydrophobic environments. The protein is thermally denatured by heating resulting in increased dye binding to the unfolded protein and fluorescence. The temperature midpoint (Tm) of a proteins denaturation is established by calculating the half maximal value of the denaturation curve. The temperature midpoint of the protein in the presence of a ligand is directly related to the affinity of the ligand for the protein and therefore its ability to stabilize the protein at higher temperatures.

hSTING REF allele = molecular target: T3, hSTING REF allele (Homo sapiens, UniProt Q86WV6); experiment: ITC binding assay, hSTING REF allele; conditions: 25° C., protein 0.1 mM, ligand 0.35 mM
T3 construct: made in house; host or cells: BL21 Rosetta 2 (DE3) E. coli
Protocol: as §2
The resulting amino acid sequences for the STING REF allele is as follows: • Allele Name: REF • Amino Acid Sequence:
as §3, §4

HAQ allele hSTING = molecular target: T4, HAQ allele hSTING (Homo sapiens, UniProt Q86WV6, G230A/H232R/R293Q); experiment: DSF Tm shift, purified hSTING HAQ allele (AA140-379); type: binding; conditions: 1 mg/ml STING AA140-379, ligand 1 mM
T4 construct: 6xHis-SUMO (with TEV site) (N, cleaved yes); made in house; host or cells: Rosetta2 (DE3) E. coli
Protocol: as §5, §6

wild type hSTING = molecular target: T5, wild type hSTING (Homo sapiens, UniProt Q86WV6, H232R); experiment: DSF Tm shift, purified hSTING WT (AA140-379); type: binding; conditions: 1 mg/ml STING AA140-379, ligand 1 mM
T5 construct: 6xHis-SUMO (with TEV site) (N, cleaved yes); made in house; host or cells: Rosetta2 (DE3) E. coli
Protocol: as §5, §6

[6] = 1 μg IT combined with anti-PD-1 antibody 200 μg IP twice per week

Row | EC50 [1] [µM] | EC50 ([1]; Homo sapiens, THP-1, 0.5 h) [µM] | Kd (hSTING WT) [µM] | hSTING Tm Shift REF (REF allele hSTING) [°C] | Kd (hSTING REF allele) [µM] | hSTING Tm Shift HAQ (HAQ allele hSTING) [°C] | hSTING Tm Shift WT (wild type hSTING) [°C] | SMILES | tumor-specific T cell response in distal tumor (4T1 mammary carcinoma [2]; 1 μg IT alone, TILs day 7 post IT injection) | polyfunctional IFNγ+TNFα+ CD8 T cells specific for the AH1 peptide in the tumor microenvironment (4T1 mammary carcinoma [2]; 1 μg IT combined with anti-PD-1, TILs of non-injected tumor, day 7 post IT injection) | cures of the distal tumor (4T1 mammary carcinoma [3]; 10 μg single IT dose, n=8) [%] | cures of the primary tumor (4T1 mammary carcinoma [3]; 10 μg single IT dose, n=8) [%] | tumor inhibition in primary (injected) and distal (non-injected) flank tumor (4T1 mammary carcinoma [3]; single IT injection 0.1, 1, 10, 100 μg, compared to HBSS) | frequency of tumor-specific systemic T cells (4T1 mammary carcinoma [4]) | cures, injected tumor (4T1 mammary carcinoma [5]; 1 μg IT + control IgG) [%] | cures, non-injected tumor (4T1 mammary carcinoma [5]; 1 μg IT + control IgG) [%] | cures, distal (non-injected) tumor (4T1 mammary carcinoma [5]; [6]) [%] | cures, primary (injected) tumor (4T1 mammary carcinoma [5]; [6]) [%]
1 | > 150 | – | – | – | – | – | – | Nc1nc2c(ncn2[C@@H]2O[C@@H]3COP(=O)(O)O[C@H]4[C@@H](O)[C@H](n5cnc6c(N)ncnc65)O[C@@H]4COP(=O)(O)O[C@@H]2[C@@H]3O)c(=O)[nH]1 [2′3′-(G)(A)] | – | – | – | – | – | – | – | – | – | –
2 | 16.6 | < 20 | 0.098 | 12.5 | 0.17 | 19.7 | 13.9 | Nc1ncnc2c1ncn2[C@@H]1O[C@@H]2CO[P@@](=O)(S)O[C@@H]3[C@H](F)[C@@H](CO[P@@](=O)(S)O[C@@H]1[C@@H]2F)O[C@H]3n1cnc2c(N)ncnc21 [2′2′-RR-(3′F-A)(3′F-A), (1S,3R,6R,8R,9S,11R,14R,16R,17R,18R)-8,16-bis(6-amino-9H-purin-9-yl)-17,18-difluoro-3,11-dimercapto-2,4,7,10,12,15-hexaoxa-3,11-diphosphatricyclo[12.2.1.1^6,9]octadecane 3,11-dioxide] | measurable above background | statistically significant increase | 37.5 | 100 | potent dose-dependent tumor inhibition | significantly higher frequency | 25 | 0 | 62.5 | 87.5
3 | – | > 150 | – | 3.6 | – | 5.1 | 3.4 | Nc1ncnc2c1ncn2[C@@H]1O[C@@H]2CO[P@@](=O)(S)O[C@@H]3[C@H](O)[C@@H](CO[P@@](=O)(S)O[C@@H]1[C@@H]2O)O[C@H]3n1cnc2c(N)ncnc21 [2′2′-RR-(A)(A), (1R,3R,6R,8R,9R,11R,14R,16R,17R,18R)-8,16-bis(6-amino-9H-purin-9-yl)-17,18-dihydroxy-3,11-dimercapto-2,4,7,10,12,15-hexaoxa-3,11-diphosphatricyclo[12.2.1.1^6,9]octadecane 3,11-dioxide] | – | – | – | – | – | – | – | – | – | –
